Assay results reported in patent US20120252792A1, “METHODS AND COMPOSITIONS FOR MODULATING RHO-MEDIATED GENE TRANSCRIPTION” (THE REGENTS OF THE UNIVERSITY OF MICHIGAN, priority 2009, published 2012).

Tests used:
[1] = test system: PC-3 prostate cancer cells; assay: WST1 cell viability assay; format: cell-based, human; conditions: Homo sapiens, PC-3 cells, just before lysis; for inhibition at 10 µM: PC-3, 10 μM, read-out: % inh WST-1 (10 μM); for inhibition at 100 µM: PC-3, 100 μM, read-out: % inh WST-1 (100 μM)
Method: WST1 Cell Viability Assay: One hour prior to cell lysis for the dual luciferase assay, 10 μl per well of WST1 reagent (Roche) was added to the 96-well plates. Plates were incubated for 1 hour at 37° C. and 5% CO2. Cell viability was measured by WST1 absorbance at 450 nm with a Victor2 (Perkin-Elmer) plate reader.

Rho/MKL1 pathway = assay: SRE.L-firefly luciferase reporter (dual luciferase assay), Gα12QL-transfected PC-3 cells; format: cell-based, human; conditions: Homo sapiens; for inhibition at 100 µM / inhibition at 10 µM: DMSO alone = 0%; for inhibition at 100 µM: read-out: % inh SRE.L (100 μM); for inhibition at 10 µM: read-out: % inh SRE.L (10 μM)
Method: Dual Luciferase Assay: Seed PC-3 prostate cancer cells (40,000 cells/well) were grown in 96-well plates in 10% FBS containing DMEM medium. Cells were transiently transfected with the Gα12QL activator of the Rho/MKL1 pathway, along with the SRE.L-firefly luciferase reporter construct for 6 hours. Additionally, cells were co-transfected with the TK-Renilla luciferase reporter as an indicator of non-specific compound effects. Various concentrations of selected compounds were added to the 96-well plates. Plates were incubated for 19 hours at 37° C. and 5% CO2 in 0.5% FBS containing DMEM medium. Cells were lysed with 1X Passive Lysis Buffer (Promega). Plates were incubated for 30 minutes at room temperature. Luminescence counts were read with a Victor2 (Perkin-Elmer) plate reader.

Row | Compound | inhibition at 10 µM [1] [%] | inhibition at 100 µM [1] [%] | IC50 (Rho/MKL1 pathway; 19 h) [µM] | IC50 (Rho/MKL1 pathway; 19 hrs) [µM] | inhibition at 100 µM (Rho/MKL1 pathway; 19 h) [%] | inhibition at 10 µM (Rho/MKL1 pathway; 19 h) [%]
1 | O=C(Nc1ccc(Cl)cc1)C1CCCN(C(=O)c2cc(C(F)(F)F)cc(C(F)(F)F)c2)C1 (centres unmarked) [Compound 4, 1-(3,5-bis(trifluoromethyl)benzoyl)-N-(4-chlorophenyl)piperidine-3-carboxamide] | 0 | 14 |  |  |  | 
2 | COc1ccc(NC(=O)CONC(=O)c2cc(C(F)(F)F)cc(C(F)(F)F)c2)cc1Cl [Compound 9, N-(2-(3-chloro-4-methoxyphenylamino)-2-oxoethoxy)-3,5-bis(trifluoromethyl)benzamide] |  |  | 11.4 |  |  | 
3 | CN(C(=O)CONC(=O)c1cc(C(F)(F)F)cc(C(F)(F)F)c1)c1ccc(Cl)cc1 [Compound 11, N-(2-((4-chlorophenyl)(methyl)amino)-2-oxoethoxy)-3,5-bis(trifluoromethyl)benzamide] |  |  | 111 |  |  | 
4 | COc1ccc(NC(=O)C2CCCN(C(=O)c3cc(C(F)(F)F)cc(C(F)(F)F)c3)C2)cc1Cl (centres unmarked) [Compound 12, 1-(3,5-bis(trifluoromethyl)benzoyl)-N-(3-chloro-4-methoxyphenyl)piperidine-3-carboxamide] |  |  | 6 |  |  | 
5 | COc1ccc(NC(=O)CCNC(=O)c2cc(C(F)(F)F)cc(C(F)(F)F)c2)cc1Cl [Compound 13, N-(3-(3-chloro-4-methoxyphenylamino)-3-oxopropyl)-3,5-bis(trifluoromethyl)benzamide] |  |  | 142 |  |  | 
6 | O=C(c1cc(C(F)(F)F)cc(C(F)(F)F)c1)N1CCC(Nc2ccc(Cl)cc2)CC1 [Compound 17, (3,5-bis(trifluoromethyl)phenyl)(4-(4-chlorophenylamino)piperidin-1-yl)methanone] |  |  |  | 10.8 |  | 
7 | COc1ccc(NCCCNC(=O)c2cc(C(F)(F)F)cc(C(F)(F)F)c2)cc1Cl [Compound 20, N-(3-(3-chloro-4-methoxyphenylamino)propyl)-3,5-bis(trifluoromethyl)benzamide] |  |  | 9.9 |  |  | 
8 | COc1cc(NCCCNC(=O)c2cc(C(F)(F)F)cc(C(F)(F)F)c2)ccc1Cl [Compound 21, N-(3-(4-chloro-3-methoxyphenylamino)propyl)-3,5-bis(trifluoromethyl)benzamide] |  |  | 7.3 |  |  | 
9 | O=C(c1cc(C(F)(F)F)cc(C(F)(F)F)c1)N1CCC(=O)N(c2ccc(Cl)cc2)CC1 [Compound 24, 1-(3,5-bis(trifluoromethyl)benzoyl)-4-(4-chlorophenyl)-1,4-diazepan-5-one] |  |  | > 100 |  | 30 | 
10 | O=C(CCNC(=O)c1cc(C(F)(F)F)cc(C(F)(F)F)c1)NCc1ccc(Cl)cc1 [Compound 25, N-(3-(4-chlorobenzylamino)-3-oxopropyl)-3,5-bis(trifluoromethyl)benzamide] |  |  | 5 |  |  | 
11 | O=C(NC1CC(=O)N(c2ccc(Cl)cc2)C1)OCc1ccccc1 (centres unmarked) [Compound 31, Benzyl 1-(4-chlorophenyl)-5-oxopyrrolidin-3-ylcarbamate] |  |  | 54.7 |  |  | 
12 | O=C(N[C@@H]1CCC[C@@H]1C(=O)Nc1ccc(Cl)cc1)c1cc(C(F)(F)F)cc(C(F)(F)F)c1 [Compound 39] |  |  | > 100 |  |  | 
13 | O=C(CCc1cn(-c2cc(C(F)(F)F)cc(C(F)(F)F)c2)nn1)Nc1ccc(Cl)cc1 [Compound 40] |  |  | > 100 |  |  | 
14 | O=C(NCCc1cn(-c2ccc(Cl)cc2)nn1)c1cc(C(F)(F)F)cc(C(F)(F)F)c1 [Compound 41] |  |  | > 100 |  |  | 
15 | O=C(NCCCNc1ccc(Cl)nc1)c1cc(C(F)(F)F)cc(C(F)(F)F)c1 [Compound 42, N-(3-((6-chloropyridin-3-yl)amino)propyl)-3,5-bis(trifluoromethyl)benzamide] | -7.4 | 64.7 | 24.4 |  | 95.1 | -1.7
16 | O=C(NCCCNc1ccc(Cl)cc1)c1cc(F)cc(F)c1 [Compound 43, N-(3-((4-chlorophenyl)amino)propyl)-3,5-difluorobenzamide] | -9.9 | 73 | 34.7 |  | 95.7 | -6.5

Row | Compound | inhibition at 10 µM [1] [%] | inhibition at 100 µM [1] [%] | IC50 (Rho/MKL1 pathway; 19 h) [µM] | IC50 (Rho/MKL1 pathway; 19 hrs) [µM] | inhibition at 100 µM (Rho/MKL1 pathway; 19 h) [%] | inhibition at 10 µM (Rho/MKL1 pathway; 19 h) [%]
17 | O=C(NCCCNc1ccc(Cl)cn1)c1cc(C(F)(F)F)cc(C(F)(F)F)c1 [Compound 44, N-(3-((5-chloropyridin-2-yl)amino)propyl)-3,5-bis(trifluoromethyl)benzamide] | 17.6 | 39.4 | 654 |  | 82.9 | 20.5
18 | O=C(NC1CC(=O)N(c2ccc(Cl)cc2)C1)OCc1cc(C(F)(F)F)cc(C(F)(F)F)c1 (centres unmarked) [Compound 45, 3,5-bis(trifluoromethyl)benzyl (1-(4-chlorophenyl)-5-oxopyrrolidin-3-yl)carbamate] | 0.6 | 8.4 | 13.4 |  | 68 | 9.4
19 | O=C(NC1CC(=O)N(c2ccc(Cl)cc2)C1)OCc1cc(F)cc(F)c1 (centres unmarked) [Compound 46, 3,5-difluorobenzyl (1-(4-chlorophenyl)-5-oxopyrrolidin-3-yl)carbamate] | 0.1 | 67.5 |  |  | 76.1 | 13.7
20 | O=C(NC1CC(=O)N(c2ccc(Cl)cc2)C1)c1cc(C(F)(F)F)cc(C(F)(F)F)c1 (centres unmarked) [Compound 47, N-(1-(4-chlorophenyl)-5-oxopyrrolidin-3-yl)-3,5-bis(trifluoromethyl)benzamide] | -0.8 | 14.3 | 18 |  | 57.8 | 18
21 | O=C1CC(NC(=O)c2cc(C(F)(F)F)cc(C(F)(F)F)c2)c2cc(Cl)ccc2N1 (centres unmarked) [Compound 48, N-(6-chloro-2-oxo-1,2,3,4-tetrahydroquinolin-4-yl)-3,5-bis(trifluoromethyl)benzamide] | 4.3 | -2.7 |  |  | 2.5 | 4.9
22 | O=C(NC1CC(=O)N(c2ccc(Cl)cc2)C1)c1cc(F)cc(F)c1 (centres unmarked) [Compound 49, N-(1-(4-chlorophenyl)-5-oxopyrrolidin-3-yl)-3,5-difluorobenzamide] | -6.1 | 0.6 |  |  | 13.4 | -8.4
23 | FC(F)(F)c1cc(CN2CCCC(CNc3ccc(Cl)cc3)C2)cc(C(F)(F)F)c1 (centres unmarked) [Compound 50, N-((1-(3,5-bis(trifluoromethyl)benzyl)piperidin-3-yl)methyl)-4-chloroaniline] | 20.9 | 32.2 |  |  | 70.2 | 0.9
24 | O=C(Nc1cc(C(F)(F)F)cc(C(F)(F)F)c1)C1CC(=O)N(c2ccc(Cl)cc2)C1 (centres unmarked) [Compound 51, N-(3,5-bis(trifluoromethyl)phenyl)-1-(4-chlorophenyl)-5-oxopyrrolidine-3-carboxamide] | 55.9 | 74.6 |  |  | 99.2 | 74.3
25 | COc1cc(N2CC(NC(=O)c3cc(C(F)(F)F)cc(C(F)(F)F)c3)CC2=O)ccc1Cl (centres unmarked) [Compound 52, N-(1-(4-chloro-3-methoxyphenyl)-5-oxopyrrolidin-3-yl)-3,5-bis(trifluoromethyl)benzamide] | -0.3 | 42.2 |  |  | 16.9 | -18.4
26 | O=C(NCC1CCN(c2ccc(Cl)cc2)C1=O)c1cc(C(F)(F)F)cc(C(F)(F)F)c1 (centres unmarked) [Compound 53, N-((1-(4-chlorophenyl)-2-oxopyrrolidin-3-yl)methyl)-3,5-bis(trifluoromethyl)benzamide] | 7.9 | 26.9 |  |  | 32.3 | 14.1
27 | O=C1Nc2ccc(Cl)cc2C1=CNC(=O)c1cc(C(F)(F)F)cc(C(F)(F)F)c1 [Compound 54, N-((5-chloro-2-oxoindolin-3-ylidene)methyl)-3,5-bis(trifluoromethyl)benzamide] | 10.6 | 17.7 |  |  | 12.2 | 6.5
28 | COc1ccc(N2CC(NC(=O)c3cc(C(F)(F)F)cc(C(F)(F)F)c3)CC2=O)cc1Cl (centres unmarked) [Compound 55, N-(1-(3-chloro-4-methoxyphenyl)-5-oxopyrrolidin-3-yl)-3,5-bis(trifluoromethyl)benzamide] | 7.4 | 23.9 |  |  | 26 | 4.5
29 | O=C(c1cc(C(F)(F)F)cc(C(F)(F)F)c1)N1CCCC(CNc2ccc(Cl)cc2)C1 (centres unmarked) [Compound 56] | 24.8 | 22.4 |  |  | 8.3 | 11.5
30 | CC(C)(C)OC(=O)NC1CCN(c2ccc(Cl)cc2)C1 (centres unmarked) [Compound 57, tert-butyl (1-(4-chlorophenyl)pyrrolidin-3-yl)carbamate] | 9.2 | 21.1 |  |  | 18.7 | -44.4
31 | O=C(NC1CCN(c2ccc(Cl)cc2)C1)c1cc(C(F)(F)F)cc(C(F)(F)F)c1 (centres unmarked) [Compound 58, N-(1-(4-chlorophenyl)pyrrolidin-3-yl)-3,5-bis(trifluoromethyl)benzamide] | -10.5 | -1.7 |  |  | 10.5 | -4.6
